Laboratory results: US20140128357A1, “METHODS OF PRODUCING AND USING BRASSINOSTEROIDS TO PROMOTE GROWTH, REPAIR AND MAINTENANCE OF SKELETAL MUSCLE AND SKIN” (Rutgers University, priority 2010, published 2014)

Columns and labels:
mice = details: orally or subcutaneously; cited from earlier work
rats = details: orally or subcutaneously; cited from earlier work
[1] = tested on: 3T3 Swiss fibroblast monolayers; experiment: Scratch wound closure in vitro; format: cell-based, mouse; details: for Scratch wound closure at 5 μM, % of control: 12 h (Table 6)
Protocol: 3T3 fibroblasts were seeded into 24-well dishes at a concentration of 3×10^5 cells/ml and cultured to nearly confluent cell monolayers. On the day of the experiment, a linear wound was generated in the monolayer with a sterile 100 μl plastic pipette tip and any cellular debris was removed by washing cells once with sterile PBS. Fresh DMEM medium containing vehicle (0.1% ethanol), positive control (0.5% FBS), or various concentrations of the fractions, sub-fractions or pure compounds was added to a set of 3 wells per dose and incubated for 12 h at 37° C. with 5% CO2. Cells were then visualized with 20 μl of 10% methylene blue in PBS for 5 min. Three representative images of the scratched areas from each well were photographed at 0 and 12 h to estimate the scratch wound closure. Images were analyzed using ImageJ program (NIH, Bethesda, Md.) and % wound closure was calculated relative to vehicle control and was reported as wound closure % over control (Table 4). 3T3 Swiss fibroblast were seeded into 24-well tissue culture at a concentration of 3×10^5 cells/ml and cultured to nearly confluent cell monolayers. Then, a linear wound was generated in the monolayer with a sterile 100 μl plastic pipette tip. Any cellular debris was removed by washing with PBS. DMEM medium with vehicle (0.1% ethanol), FBS (1%, positive control), or various concentrations of brassinosteroids were added to a set of 3 wells per dose and incubated for 12 h at 37° C. with 5% CO2. Cells were visualized in 10% methylene blue for 5 minutes. Three representative images from each well of the scratched areas under each condition were photographed to estimate the relative migration of cells at 0 and 12 h post-treatment. Data were analyzed using ImageJ software available online from the National Institutes of Health (rsbweb.nih.gov/ij/) by calculating the percentage of scratch closure at each dose point relative to control.

L6 rat myotubes [2] = experiment: Protein degradation, release of acid-soluble [3H]-phenylalanine; format: cell-based; details: 10 μM, 4 h
Protocol: In some aspects, cell culture experiments were carried out. Rat L6 skeletal muscle cell line CRL-1458 was obtained from ATCC (Manassas, Va.). Myoblasts were routinely maintained in Dulbecco's modified Eagle's medium (DMEM) containing 10% FBS and 0.1% penicillin-streptomycin at 37° C. and 5% CO2. Cells were subcultured into 24-well plates for protein synthesis, degradation, and cell viability studies and into 6-well plates for Western blot analyses (Greiner Bio One, Monroe, N.C.). Once cells reached 90% confluence, differentiation was induced by lowering the serum concentration to 2%, and medium was changed every 2 days. […] NIH 3T3 murine embryonic fibroblast cell line (ATCC #CCL-92) was maintained in DMEM and 10% FBS at 37° C. in 5% CO2, and passaged every 3-4 days.
In various aspects, protein degradation is measured to determine the effect of brassinosteroid on a particular protein. All known methods for measuring protein degradation are included in the methods of the disclosure. The effect of brassinosteroids on protein degradation was investigated in fully differentiated myotubes as described by Fawcett et al. (Arch. Biochem. Biophys. 385:357-363, 2001) with slight modifications. Fully differentiated myotubes were incubated for 16 h to allow labeling of cellular proteins with 1.5 μCi/mL [^3H]-phenylalanine. […] The incubation was stopped by placing the cells on ice, and protein in the medium was precipitated with 5% trichloroacetic acid. Specific radioactivity of protein-free phenylalanine was quantified using liquid scintillation counter LS 6500 (Beckman Coulter, Fullerton, Calif.) and normalized to mg of total cell protein determined by BCA protein assay (Pierce Biotechnology, Rockford, Ill.).
The bioactivity of HB and its analogs (as shown in Table 3) were also evaluated by measuring decreases in protein degradation in the L6 rat skeletal muscle cells in vitro. Cells were labeled overnight with [^3H]-phenylalanine and subsequently treated for 4 h in triplicate with vehicle (0.1% ethanol) or test compound (10 μM), and protein degradation was assessed as release of acid-soluble [^3H]-phenylalanine into the media normalized by total protein (Table 3).

[3] = Cytotoxicity, MTT assay in 3T3 fibroblasts; format: cell-based, mouse; details: mouse
Protocol: (§1) FIG. 9. Cell survival curves as measured by MTT assay for brassinosteroids 1-9 against the murine fibroblast cell line NIH-3T3. Cells were incubated with various concentrations of brassinosteroids (0.3-30 μM) for 24 h at 37° C. The mean absorbance of the control cells represented 100% cell proliferation, and the mean absorbance of treated cells was related to control values to determine sensitivity. Error bars represent standard error (n=6) from mean cell proliferation as determined by repeated experiments.
(§2) In various aspects, cell viability is measured and the effects of doses of compound and test reagents are tested in cell lines. In some aspects, cell viability was measured by the MTT (3-(4,5-Dimethylthiazol-2-yl)-2,5-diphenyltetrazolium bromide) assay in triplicate (Mosmann et al., J. Immunol. Methods 65:55-63, 1983) and quantified spectrophotometrically at 550 nm using a microplate reader (Molecular Devices, Sunnyvale, Calif.).
(§3) 3T3 fibroblasts were seeded in a 96-well flat bottom plate at a density of 1×10^4 cells/well. Cell viability was measured by an MTT (3-(4,5-Dimethylthiazol-2-yl)-2,5-diphenyltetrazolium bromide) assay in triplicate (0.3-30 μM of test substance for […]) essentially as described by Mosmann (J. Immunol. Methods 65, 55-63, 1983) and quantified spectrophotometrically at 550 nm using a microplate reader (Molecular Devices, Sunnyvale, Calif.). […] For cell proliferation studies, cells were treated in triplicate with 0.1-10 μM of test substance for 24 h and assayed using a BrdU (5-bromo-2′-deoxyuridine) kit from Amersham (Uppsala, Sweden).

[4] = tested on: NIH 3T3 murine fibroblast cell line; experiment: Cytotoxicity, MTT assay in 3T3 fibroblasts; format: cell-based, mouse
Protocol: as §1, §2, §3

L6 rat myotubes [5] = experiment: Protein synthesis, [3H]-phenylalanine incorporation in myotubes; format: cell-based; details: 10 μM, 4 h
Protocol: In some aspects, cell culture experiments were carried out. Rat L6 skeletal muscle cell line CRL-1458 was obtained from ATCC (Manassas, Va.). Myoblasts were routinely maintained in Dulbecco's modified Eagle's medium (DMEM) containing 10% FBS and 0.1% penicillin-streptomycin at 37° C. and 5% CO2. Cells were subcultured into 24-well plates for protein synthesis, degradation, and cell viability studies and into 6-well plates for Western blot analyses (Greiner Bio One, Monroe, N.C.). Once cells reached 90% confluence, differentiation was induced by lowering the serum concentration to 2%, and medium was changed every 2 days. After 7-9 days of culture the myoblasts had fused into multinucleated myotubes (Mandel et al., Nature 251:618-620, 1974). NIH 3T3 murine embryonic fibroblast cell line (ATCC #CCL-92) was maintained in DMEM and 10% FBS at 37° C. in 5% CO2, and passaged every 3-4 days.
In various aspects, protein synthesis is measured to determine the effect of brassinosteroid on a particular protein. All known methods for measuring protein synthesis are included in the methods of the disclosure. In brassinosteroid dose response studies, fully differentiated myotubes were washed with serum-free DMEM and treated in triplicate with vehicle (0.1% ethanol), increasing concentrations of HB, or 6.5 nM of insulin-like growth factor-1 (IGF-1) as a positive control. Compounds were added to serum-free medium containing 0.5 μCi/mL [^3H]-phenylalanine and incubated for 4 h. For the HB time course study, fully differentiated myotubes were treated with 3 μM HB for 1-24 h using the same culture conditions. The incubation was stopped by placing cells on ice, discarding the medium, and washing the cells extensively with ice-cold PBS to remove the non-incorporated radiolabel. Proteins were precipitated with 5% trichloroacetic acid and dissolved in 0.5N NaOH (Montgomery et al., Methods Cell. Sci. 24:123-129, 2002). Specific radioactivity of protein-bound phenylalanine was quantified using liquid scintillation counter LS 6500 (Beckman Coulter, Fullerton, Calif.) and normalized to mg of total protein determined by BCA protein assay (Pierce Biotechnology, Rockford, Ill.).
The bioactivity of HB and its analogs was evaluated by measuring increases in protein synthesis in the L6 rat skeletal muscle cells in vitro. Cells were incubated for 4 h with [^3H]-phenylalanine and treated in triplicate with vehicle (0.1% ethanol) or test compound (10 μM), and protein synthesis was measured as incorporation of [^3H]-phenylalanine into protein normalized by total protein (Table 3). Under these conditions, both HB and (22S,23S)-homocastasterone increased protein synthesis by 37.2±5.9% (p<0.001) and 41.0±2.7% (p<0.001), respectively. This protein synthesis increase compared favorably to the biological activity of IGF-1 at 6.5 nM (42.5±4.5%, p<0.001) that served as a positive control in this assay. Removal of the 2α-hydroxyl group and fluorination at C-3 in the A ring (compound IDs 3-4 in Table 3) led to about a 50% decrease in bioactivity (24.6±5.3%, p<0.01 and 22.5±2.7%, p<0.01, respectively) compared to the positive control. However, there was still an increase in protein synthesis. […] Modifications in the side chain (compound IDs 7-9 in Table 3) abolished the activity.

3T3 mouse fibroblasts = experiment: Cell proliferation, BrdU assay; format: cell-based; details: 24 h
Protocol: as §3

[6] = tested on: 3T3 Swiss fibroblast monolayers; details: PDGF 2 nM reference treatment, reported previously (Schmidt et al.); cited from earlier work

| Compound | Scratch wound closure at 5 μM, % of control [1] [%] | Protein degradation (% decrease over control) (L6 rat myotubes [2]) [%] | Protein synthesis (% increase over control) (L6 rat myotubes [5]) [%] | Cell proliferation at 5 μM, % of control (3T3 mouse fibroblasts) [%] | IC50 [4] [µM] | other results |
| --- | --- | --- | --- | --- | --- | --- |
| CC(C)[C@@H](C)[C@@H](O)[C@H](O)[C@@H](C)[C@H]1CC[C@H]2[C@@H]3COC(=O)[C@H]4C[C@H](O)[C@H](O)C[C@]4(C)[C@H]3CC[C@]12C [24-Epibrassinolide] |  |  |  |  |  | median lethal dose (LD50) (mice): higher than 1000 mg/kg; median lethal dose (LD50) (rats): higher than 2000 mg/kg |
| CC[C@@H](C(C)C)[C@H](O)[C@@H](O)[C@@H](C)[C@H]1CC[C@H]2[C@@H]3CC(=O)[C@H]4C[C@H](F)CC[C@]4(C)[C@H]3CC[C@]12C [Compound 4, (22S,23S,24S)-3α-fluoro-22,23-dihydroxy-24-ethyl-5α-cholestan-6-one] | 27.7 ± 4.0 | −16.3 ± 4.2 | 22.5±2.7 |  |  | Wound Closure (% over control) ([1]; 10 μM, 12 h (Table 4)): 27.7 ± 4.0 %; fibroblast migration activity in words ([1]; 0.1-10 μM, 12 h): high activity, similar to HB; IC50 [3]: ~30 µM; cytotoxicity compared to the original brassinosteroids [4]: increased cytotoxicity |
| CC[C@@H](C(C)C)[C@@H](O)[C@H](O)[C@@H](C)[C@H]1CC[C@H]2[C@@H]3COC(=O)[C@H]4C[C@H](O)[C@H](O)C[C@]4(C)[C@H]3CC[C@]12C [Compound 7, (22R,23R,24S)-2α,3α-22,23-tetrahydroxy-24-ethyl-B-homo-7-oxa-5α-cholestan-6-one] | 16.5 ± 0.5 | −14.8 ± 3.8 | 13.1 ± 2.4 | 29.1 ± 3.4 | > 30 |  |
| CC(C)[C@H](C)[C@H](O)[C@@H](O)[C@@H](C)[C@H]1CC[C@H]2[C@@H]3COC(=O)[C@H]4C[C@@H](O)[C@H](O)C[C@]4(C)[C@H]3CC[C@]12C [Compound 8, (22S,23S,24R)-2α,3α-22,23-tetrahydroxy-24-methyl-B-homo-7-oxa-5α-cholestan-6-one] | 13.2 ± 1.5 | −5.4 ± 7.9 | 4.1 ± 1.7 | 31.9 ± 5.3 | > 30 |  |
| CC(C)C(C)C(O)C(O)C(C)C1CCC2C3COC(=O)C4CC(O)C(O)CC4(C)C3CCC12C [Compound 9, (22R,23R,24R)-2α,3α-22,23-tetrahydroxy-24-methyl-B-homo-7-oxa-5α-cholestan-6-one] | 8.1 ± 1.6 | −6.7 ± 7.9 | 11.7 ± 3.9 | 31.0 ± 2.6 | > 30 |  |
| PDGF |  |  |  |  |  | Scratch wound closure, % of control [6]: 64.8 ± 1.7 % |
